Experimental data reported in patent US12545659B2, “IRAK degraders and uses thereof” (Kymera Therapeutics, Inc., priority 2019, dated 2026).

Biological target: T1, IRAK4 (Homo sapiens, UniProt Q9NWZ3)
T1 construct: endogenous in cells; host or cells: OCI-LY10
T1 sequence (Q9NWZ3 1-460): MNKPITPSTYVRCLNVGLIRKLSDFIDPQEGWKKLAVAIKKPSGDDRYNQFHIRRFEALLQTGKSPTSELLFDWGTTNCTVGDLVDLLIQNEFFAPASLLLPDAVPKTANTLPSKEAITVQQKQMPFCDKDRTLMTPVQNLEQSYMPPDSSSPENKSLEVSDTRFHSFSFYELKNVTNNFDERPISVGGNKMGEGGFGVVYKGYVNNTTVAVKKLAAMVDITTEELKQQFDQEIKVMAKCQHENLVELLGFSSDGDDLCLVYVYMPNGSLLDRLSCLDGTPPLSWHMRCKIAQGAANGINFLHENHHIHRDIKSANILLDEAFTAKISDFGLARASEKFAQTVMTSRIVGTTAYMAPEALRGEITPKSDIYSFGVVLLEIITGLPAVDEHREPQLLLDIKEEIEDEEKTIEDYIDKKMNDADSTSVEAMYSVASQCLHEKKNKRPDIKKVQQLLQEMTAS
Assay: IRAK4 MSD Degradation in OCI-LY10
Assay type: cell-based
Details: OCI-LY10 cells, 4 hrs incubation, read-out: IRAK4 degradation in OCI-LY10 at 4 hrs: DC50
Protocol: Degradation of IRAK4 in OCI-LY10 was quantitatively measured using Meso Scale Discovery technology. […] Compounds were then added to the assay plates with a final top concentration of 1 to 10 μM in a 1:3 dilution series with total of 8 doses. The assay plates were then incubated for 4 to 24 hours at 37° C. under 5% C02. […] To prepare MSD assay plates (Meso Scale Discovery Catalog number L15XA-3), the plates were coated with […] capture antibody (mouse Anti-IRAK4 antibody [2H9], ab119942) in PBS, at 40 μL/well. […] Cell lysates were then added to MSD assay plates and the plates were incubated at room temperature for 1 hour. The plates were then washed 3 times with 150 μL/well TBST buffer and 25 μL/well primary detection antibody (rabbit Anti-IRAK4 antibody [Y279], from Abcam. Catalog number ab32511, 1 μg/mL). The assay plates were then incubated at room temperature for 1 hour, washed 3 times with 150 μL/well TBST buffer and 25 μL/well secondary detection antibody, SULFO-TAG anti-rabbit antibody were added (anti rabbit antibody from Meso Scale Discovery, Catalog number R32AB-1, 1 μg/mL). The assay plates were then incubated at room temperature for 1 hour, washed 3 times with 150 μL/well TBST buffer, and 150 μL/well MSD reading buffer (Meso Scale Discovery catalog number R92TC-2) was added. The plates were then analyzed by a MSD reader (Meso Scale Discovery, Model Quick Plex SQ 120). The data was then analyzed by software Prism 7.0 from GraphPad and the dose-depended IRAK4 degradation were fit using a three-parameter logistic equation to calculate DC50.
The letter codes for IRAK4 […] include: A (<0.05 μM); B (0.05-0.1 μM); C (0.1-0.5 μM); D (0.5-1.0 μM); and E (>1.0 μM).

| SMILES | DC50 [nM] |
| --- | --- |
| COc1cc2nn([C@H]3CC[C@H](CN4CCC5(CC4)CN(Cc4cccc6c4n(C)c(=O)n6C4CCC(=O)NC4=O)CCO5)CC3)cc2cc1NC(=O)c1cccc(C(F)(F)F)n1 (stereo partly shown) [I-289] | 50 to 100 |
| Cn1c(=O)n(C2CCC(=O)NC2=O)c2ccc(N3CCN(C[C@H]4CC[C@H](n5cc6cc(NC(=O)c7cccc(C(C)(C)F)n7)c(C(F)F)cc6n5)CC4)CC3)cc21 (stereo partly shown) [I-157] | 50 to 100 |
| COc1cc2nn([C@H]3CC[C@H](CN4CCC5(CC4)CC(CNc4cccc6c4n(C)c(=O)n6C4CCC(=O)NC4=O)C5)CC3)cc2cc1NC(=O)c1cccc(C(F)(F)F)n1 (stereo partly shown) [I-163] | 50 to 100 |
| Cn1c(=O)n(C2CCC(=O)NC2=O)c2cccc(CCC3CC4(CCN(C[C@H]5CC[C@H](n6cc7cc(NC(=O)c8ccccn8)c(C(F)F)cc7n6)CC5)CC4)C3)c21 (stereo partly shown) [I-277] | < 50 |
| Cn1c(=O)n(C2CCC(=O)NC2=O)c2ccc(C3CN(C[C@H]4CC[C@H](n5cc6cc(NC(=O)c7cccc(C(C)(C)F)n7)c(C(F)F)cc6n5)CC4)C3)cc21 (stereo partly shown) [I-99] | 50 to 100 |

The next lines start with the values.

| DC50 [nM] | SMILES |
| --- | --- |
| < 50 | Cn1c(=O)n(C2CCC(=O)NC2=O)c2cccc(CC3CC4(CCN(C[C@H]5CC[C@H](n6cc7cc(NC(=O)c8cccc(C(F)(F)F)n8)c(C(C)(C)O)cc7n6)CC5)CC4)C3)c21 (stereo partly shown) [I-56] |
| < 50 | Cn1c(=O)n(C2CCC(=O)NC2=O)c2cccc(C[C@H]3C[C@H](OC4CCN(C[C@H]5CC[C@H](n6cc7cc(NC(=O)c8cccc(C(F)(F)F)n8)c(C(C)(C)O)cc7n6)CC5)CC4)C3)c21 (stereo partly shown) [I-203] |
| < 50 | Cn1c(=O)n(C2CCC(=O)NC2=O)c2cccc([C@H]3CC[C@@H](N(C)C[C@H]4CC[C@H](n5cc6cc(NC(=O)c7cccc(C(F)(F)F)n7)c(C(C)(C)O)cc6n5)CC4)CC3)c21 (single isomer, unassigned) [I-174, N-[2-[4-[[[4-[1-(2,6-dioxo-3-piperidyl)-3-methyl-2-oxo-benzimidazol-4-yl]cyclohexyl]-methyl-amino]methyl]cyclohexyl]-6-(1-hydroxy-1-methyl-ethyl)indazol-5-yl]-6-(trifluoromethyl)pyridine-2-carboxamide] |
| 50 to 100 | Cn1c(=O)n(C2CCC(=O)NC2=O)c2cccc(C3CN(C[C@H]4CC[C@H](n5cc6cc(NC(=O)c7cccc(C(F)(F)F)n7)c(C(F)F)cc6n5)CC4)C3)c21 (stereo partly shown) [I-104] |
| 500 to 1000 | CN(C[C@H]1CC[C@H](n2cc3cc(NC(=O)c4cccc(C(F)(F)F)n4)c(C(C)(C)O)cc3n2)CC1)c1cccc2c1n(C)c(=O)n2C1CCC(=O)NC1=O (stereo partly shown) [I-310, N-[2-[4-[[[1-(2,6-dioxo-3-piperidyl)-3-methyl-2-oxo-benzimidazol-4-yl]-methyl-amino]methyl]cyclohexyl]-6-(1-hydroxy-1-methyl-ethyl)indazol-5-yl]-6-(trifluoromethyl)pyridine-2-carboxamide] |
| < 50 | Cn1c(=O)n(C2CCC(=O)NC2=O)c2cccc(CCN3CCN(C[C@H]4CC[C@H](n5cc6cc(NC(=O)c7cccc(C(F)(F)F)n7)c(C(C)(C)O)cc6n5)CC4)CC3)c21 (stereo partly shown) [I-146] |
| 500 to 1000 | COc1cc2nn([C@H]3CC[C@H](CN(C)C4CCN(c5cccc6c5n(C)c(=O)n6C5CCC(=O)N(C)C5=O)CC4)CC3)cc2cc1NC(=O)c1cccc(C(F)(F)F)n1 (stereo partly shown) [I-283] |
| < 50 | Cn1c(=O)n(C2CCC(=O)NC2=O)c2cccc(NCC3CC4(CCN(C[C@H]5CC[C@H](n6cc7cc(NC(=O)c8cccc(C(F)(F)F)n8)c(C(C)(C)O)cc7n6)CC5)CC4)C3)c21 (stereo partly shown) [I-166] |
| 50 to 100 | COc1cc2nn([C@H]3CC[C@H](C(=O)N4CCC(c5cccc6c5n(C)c(=O)n6C5CCC(=O)NC5=O)CC4)CC3)cc2cc1NC(=O)c1cccc(C(F)(F)F)n1 (stereo partly shown) [I-295, N-[2-[4-[4-[1-(2,6-dioxo-3-piperidyl)-3-methyl-2-oxo-benzimidazol-4-yl]piperidine-1-carbonyl]cyclohexyl]-6-methoxy-indazol-5-yl]-6-(trifluoromethyl)pyridine-2-carboxamide] |
| < 50 | Cn1c(=O)n(C2CCC(=O)NC2=O)c2cccc(CCC3CC4(CCN(C[C@H]5CC[C@H](n6cc7cc(NC(=O)c8cccc(C(F)(F)F)n8)c(C(C)(C)O)cc7n6)CC5)CC4)C3)c21 (stereo partly shown) [I-53] |

Same assay, conditions: OCI-LY10 cells, 24 hrs incubation, read-out: IRAK4 degradation in OCI-LY10 at 24 hrs: DC50

| SMILES | DC50 [nM] |
| --- | --- |
| COc1cc2nn([C@H]3CC[C@H](CN4CCC(COCCCNc5cccc6c5C(=O)N(C5CCC(=O)NC5=O)C6=O)CC4)CC3)cc2cc1NC(=O)c1cccc(C(C)(C)F)n1 (stereo partly shown) [I-231] | 50 to 100 |
| COc1cc2nc([C@H]3CC[C@H](CN4CC5(CCC(CNc6cccc7c6C(=O)N(C6CCC(=O)NC6=O)C7=O)CC5)C4)CC3)oc2cc1NC(=O)c1cccc(C(C)(F)F)n1 (stereo partly shown) [I-292] | 50 to 100 |
| CC(C)(O)c1cc2nn([C@H]3CC[C@H](CN4CCC5(CC4)CC(CNc4cccc6c4C(=O)N(C4CCC(=O)NC4=O)C6=O)C5)CC3)cc2cc1NC(=O)c1cccc(S(F)(F)(F)(F)F)n1 (stereo partly shown) [I-187] | 50 to 100 |
| CC(C)(O)c1cc2nc(N3CCC(CN4CCC5(CC4)CC(CCNc4cccc6c4C(=O)N(C4CCC(=O)NC4=O)C6=O)C5)CC3)oc2cc1NC(=O)c1cccc(C(F)(F)F)n1 (stereo not shown) [I-197] | 500 to 1000 |
| O=C1CCC(N2C(=O)c3cccc(NCC4CC5(CCN(C[C@H]6CC[C@H](n7cc8cc(NC(=O)c9cccc(C(F)(F)F)n9)c(C(F)F)cc8n7)CC6)CC5)C4)c3C2=O)C(=O)N1 (stereo partly shown) [I-46] | 50 to 100 |
| COc1cc2nn([C@H]3CC[C@H](CN4CCC5(CC4)CC(CNc4ccc6c(c4)C(=O)N(C4CCC(=O)NC4=O)C6=O)C5)CC3)cc2cc1NC(=O)c1cccc(C(F)(F)F)n1 (stereo partly shown) [I-222] | 50 to 100 |
| O=C1CCC(N2C(=O)c3cccc(NCCC4CC5(CCN(C[C@H]6CC[C@H](n7cc8cc(NC(=O)c9cccc(C(F)(F)F)n9)c(OC9CC9)cc8n7)CC6)CC5)C4)c3C2=O)C(=O)N1 (stereo partly shown) [I-159] | < 50 |
| COc1cc2nn([C@H]3CC[C@H](CN4CCO[C@@H](CCCNc5cccc6c5C(=O)N(C5CCC(=O)NC5=O)C6=O)C4)CC3)cc2cc1NC(=O)c1cccc(C(F)(F)F)n1 (stereo partly shown) [I-227] | 50 to 100 |
| COc1cc2nn([C@H]3CC[C@H](CN(C)[C@H]4CC[C@H](CNc5cccc6c5C(=O)N(C5CCC(=O)NC5=O)C6=O)CC4)CC3)cc2cc1NC(=O)c1cccc(C)n1 (stereo partly shown) [I-268] | 50 to 100 |
| C[C@]1(CN2CCC3(CC2)CC(CCNc2cccc4c2C(=O)N(C2CCC(=O)NC2=O)C4=O)C3)Cc2cc(NC(=O)c3cnn4cccnc34)c(N3CCOCC3)cc2O1 (stereo partly drawn) [I-196, N-[(2R)-2-[[2-[2-[[2-(2,6-dioxo-3-piperidyl)-1,3-dioxo-isoindolin-4-yl]amino]ethyl]-7-azaspiro[3.5]nonan-7-yl]methyl]-2-methyl-6-morpholino-3H-benzofuran-5-yl]pyrazolo[1,5-a]pyrimidine-3-carboxamide] | 500 to 1000 |
| COc1cc2nn([C@H]3CC[C@H](CN(C)C4CCN(c5cccc6c5C(=O)N(C5CCC(=O)NC5=O)C6=O)CC4)CC3)cc2cc1NC(=O)c1cccc(C(F)(F)F)n1 (stereo partly shown) [I-76] | 100 to 500 |
| CC(C)(O)c1cc2nn([C@H]3CC[C@H](CN4CCC5(CC4)CC(CCNc4cccc6c4C(=O)N(C4CCC(=O)NC4=O)C6=O)C5)CC3)cc2cc1NC(=O)c1cccc(C(C)(F)F)n1 (stereo partly shown) [I-250] | 50 to 100 |
| CC(C)(O)c1cc2c(cnn2CCN2CCC3(CC2)CC(CCNc2cccc4c2C(=O)N(C2CCC(=O)NC2=O)C4=O)C3)cc1NC(=O)c1cccc(C(F)(F)F)n1 (stereo not shown) [I-87] | 500 to 1000 |
| C[C@@]1(CN2CCC3(CC2)CC(CCNc2cccc4c2C(=O)N(C2CCC(=O)NC2=O)C4=O)C3)Cc2cc(NC(=O)c3cccc(C(F)(F)F)n3)c(N3CCOCC3)cc2O1 (stereo partly drawn) [I-319, N-((2S)-2-((2-(2-((2-(2,6-dioxopiperidin-3-yl)-1,3-dioxoisoindolin-4-yl)amino)ethyl)-7-azaspiro[3.5]nonan-7-yl)methyl)-2-methyl-6-morpholino-2,3-dihydrobenzofuran-5-yl)-6-(trifluoromethyl)picolinamide] | 500 to 1000 |

Second part, the molecule after the results:

| DC50 [nM] | SMILES |
| --- | --- |
| 50 to 100 | CN(CCCOCCCNc1cccc2c1C(=O)N(C1CCC(=O)NC1=O)C2=O)C[C@H]1CC[C@H](n2cc3cc(NC(=O)c4cccc(C(F)(F)F)n4)c(C(C)(C)O)cc3n2)CC1 (stereo partly shown) [I-31] |
| < 50 | CN(CCCO[C@H]1C[C@H](Nc2cccc3c2C(=O)N(C2CCC(=O)NC2=O)C3=O)C1)C[C@H]1CC[C@H](n2cc3cc(NC(=O)c4cccc(C(F)(F)F)n4)c(C(C)(C)O)cc3n2)CC1 (stereo partly shown) [I-41] |
